From patent US8802597B2, “Herbicidal pyrimidines” (E I du Pont de Nemours and Company, priority 2003, dated 2014)
Where two headings read alike, the source gives them in different places.

Assays:
Assay type in all cases: in vivo
[1] = system: barnyardgrass (Echinochloa crus-galli); experiment: Test B flooded paddy test; conditions: Echinochloa crus-galli, Flood, scale 0 to 100, read-out: Plant response rating, Barnyardgrass
How it was run: (§1)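 Plants were grown to the 2-leaf stage before treatment, then kept in a greenhouse for 13 to 15 days. Injury was rated visually against untreated controls on a 0 to 100 scale, where 0 is no effect and 100 is complete control.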

[2] = system: duck salad (Heteranthera limosa); experiment: Test B flooded paddy test; conditions: Heteranthera limosa, Flood, scale 0 to 100, read-out: Plant response rating, Ducksalad
How it was run: as §1

rice (Oryza sativa) = experiment: Test B flooded paddy test; conditions: Oryza sativa, Flood, scale 0 to 100, read-out: Plant response rating, Rice
How it was run: as §1

[3] = system: umbrella sedge (Cyperus difformis); experiment: Test B flooded paddy test; conditions: Cyperus difformis, Flood, scale 0 to 100, read-out: Plant response rating, Sedge, Umbrella
How it was run: as §1

[4] = system: Surinam grass (Brachiaria decumbens); experiment: Test B pre/postemergence; conditions: Urochloa decumbens; for pest or weed control at 62 g/ha: 62 g ai/ha; for pest or weed control at 250 g/ha: 250 g ai/ha
How it was run: (§2)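 Visual injury scored 0 (no effect) to 100 (complete control) versus untreated controls after 13 to 15 days in greenhouse. Treatments were pre- or postemergence sprays of surfactant-containing solvent formulations; postemergence plants at 1- to 4-leaf stage, 2 to 18 cm.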

[5] = system: barnyardgrass (Echinochloa crus-galli); experiment: Test B pre/postemergence; conditions: Echinochloa crus-galli; for pest or weed control at 62 g/ha: 62 g ai/ha; for pest or weed control at 250 g/ha: 250 g ai/ha
How it was run: as §2

[6] = system: cocklebur (Xanthium strumarium); experiment: Test B pre/postemergence; conditions: Xanthium strumarium; for pest or weed control at 62 g/ha: 62 g ai/ha; for pest or weed control at 250 g/ha: 250 g ai/ha
How it was run: as §2

corn (Zea mays) = experiment: Test B pre/postemergence; conditions: Zea mays; for Corn plant response rating (crop injury, 0 = no effect, 100 = complete kill) at 250 g/ha: 250 g ai/ha
How it was run: as §2

[7] = system: crabgrass (Digitaria sanguinalis); experiment: Test B pre/postemergence; conditions: Digitaria sanguinalis; for pest or weed control at 62 g/ha: 62 g ai/ha; for pest or weed control at 250 g/ha: 250 g ai/ha
How it was run: as §2

[8] = system: giant foxtail (Setaria faberii); experiment: Test B pre/postemergence; conditions: Setaria faberi; for pest or weed control at 62 g/ha: 62 g ai/ha; for pest or weed control at 250 g/ha: 250 g ai/ha
How it was run: as §2

[9] = system: lambsquarters (Chenopodium album); experiment: Test B pre/postemergence; conditions: Chenopodium album, post-emergence, Postemergence
How it was run: as §2

[10] = system: morningglory (Ipomoea coccinea); experiment: Test B pre/postemergence; conditions: Ipomoea; for pest or weed control at 62 g/ha: 62 g ai/ha; for pest or weed control at 250 g/ha: 250 g ai/ha
How it was run: as §2

[11] = system: pigweed (Amaranthus retroflexus); experiment: Test B pre/postemergence; conditions: Amaranthus retroflexus; for pest or weed control at 62 g/ha: 62 g ai/ha; for pest or weed control at 250 g/ha: 250 g ai/ha
How it was run: as §2

[12] = system: velvetleaf (Abutilon theophrasti); experiment: Test B pre/postemergence; conditions: Abutilon theophrasti; for pest or weed control at 62 g/ha: 62 g ai/ha; for pest or weed control at 250 g/ha: 250 g ai/ha
How it was run: as §2

[13] = system: wheat (Triticum aestivum); experiment: Test B pre/postemergence; conditions: Triticum aestivum; for plant injury at 62 g/ha: 62 g ai/ha; for plant injury at 250 g/ha: 250 g ai/ha
How it was run: as §2

[14] = system: blackgrass (Alopecurus myosuroides); experiment: Test B postemergence; conditions: Alopecurus myosuroides, post-emergence
How it was run: as §2

wild oat (Avena fatua) = experiment: Test B postemergence; conditions: Avena fatua, post-emergence
How it was run: as §2

[15] = pre-emergence, Preemergence, scale 0 to 100 (0 no effect, 100 complete control), read-out: Plant response rating, Barnyardgrass
[16] = pre-emergence, Preemergence, scale 0 to 100 (0 no effect, 100 complete control), read-out: Plant response rating, Wheat

Structure (SMILES): COC(=O)c1nc(-c2ccc(Cl)cc2)nc(N)c1Cl [Compound 58, methyl 6-amino-5-chloro-2-(4-chlorophenyl)-4-pyrimidinecarboxylate]
- pest or weed control at 125 g/ha ([1]; 125 g ai/ha): 0%
- pest or weed control at 500 g/ha ([1]; 500 g ai/ha): 0%
- pest or weed control at 125 g/ha ([2]; 125 g ai/ha): 100%
- pest or weed control at 500 g/ha ([2]; 500 g ai/ha): 100%
- plant injury at 125 g/ha (rice (Oryza sativa); 125 g ai/ha): 0%
- plant injury at 500 g/ha (rice (Oryza sativa); 500 g ai/ha): 0%
- pest or weed control at 125 g/ha ([3]; 125 g ai/ha): 90%
- pest or weed control at 500 g/ha ([3]; 500 g ai/ha): 100%

Structure (SMILES): CCOC(=O)c1nc(C2CC2)nc(NC(C)=O)c1Br [Compound 53]
- pest or weed control at 62 g/ha ([4]; post-emergence, Postemergence, scale 0 to 100 (0 no effect, 100 complete control), read-out: Surinam Grass plant response rating): 10%
- pest or weed control at 250 g/ha ([4]; post-emergence, Postemergence, scale 0 to 100, read-out: Plant response rating, Surinam Grass): 50%
- pest or weed control at 250 g/ha ([4]; pre-emergence, Preemergence, scale 0 to 100 (0 no effect, 100 complete control), read-out: Plant response rating, Surinam Grass): 30%
- pest or weed control at 62 g/ha ([4]; pre-emergence, Preemergence, scale 0 to 100, 0 no effect, 100 complete control, read-out: Plant response rating, Surinam Grass): 0%
- pest or weed control at 62 g/ha ([5]; post-emergence, Postemergence, scale 0 to 100 (0 no effect, 100 complete control), read-out: Barnyardgrass plant response rating): 80%
- pest or weed control at 250 g/ha ([5]; post-emergence, Postemergence, scale 0 to 100, read-out: Plant response rating, Barnyardgrass): 90%
- pest or weed control at 62 g/ha [5, 15]: 0%
- pest or weed control at 250 g/ha [5, 15]: 70%
- pest or weed control at 62 g/ha ([6]; post-emergence, Postemergence, scale 0 to 100 (0 no effect, 100 complete control), read-out: Cocklebur plant response rating): 50%
- pest or weed control at 250 g/ha ([6]; post-emergence, Postemergence, scale 0 to 100, read-out: Plant response rating, Cocklebur): 90%
- pest or weed control at 62 g/ha ([6]; pre-emergence, Preemergence, scale 0 to 100, 0 no effect, 100 complete control, read-out: Plant response rating, Cocklebur): 60%
- pest or weed control at 250 g/ha ([6]; pre-emergence, Preemergence, scale 0 to 100 (0 no effect, 100 complete control), read-out: Plant response rating, Cocklebur): 100%
- plant injury at 62 g/ha (corn (Zea mays); post-emergence, Postemergence, 62 g ai/ha, scale 0 to 100 (0 no effect, 100 complete control), read-out: Corn plant response rating): 0%
- Corn plant response rating (crop injury, 0 = no effect, 100 = complete kill) at 250 g/ha (corn (Zea mays); post-emergence, Postemergence, scale 0 to 100): 70%
- Corn plant response rating (crop injury, 0 = no effect, 100 = complete kill) at 62 g/ha (corn (Zea mays); pre-emergence, Preemergence, 62 g ai/ha, scale 0 to 100, 0 no effect, 100 complete control): 0%
- Corn plant response rating (crop injury, 0 = no effect, 100 = complete kill) at 250 g/ha (corn (Zea mays); pre-emergence, Preemergence, scale 0 to 100 (0 no effect, 100 complete control)): 0%
- pest or weed control at 62 g/ha ([7]; post-emergence, Postemergence, scale 0 to 100 (0 no effect, 100 complete control), read-out: Crabgrass plant response rating): 0%
- pest or weed control at 250 g/ha ([7]; post-emergence, Postemergence, scale 0 to 100, read-out: Plant response rating, Crabgrass): 30%
- pest or weed control at 62 g/ha ([7]; pre-emergence, Preemergence, scale 0 to 100, 0 no effect, 100 complete control, read-out: Plant response rating, Crabgrass): 0%
- pest or weed control at 250 g/ha ([7]; pre-emergence, Preemergence, scale 0 to 100 (0 no effect, 100 complete control), read-out: Plant response rating, Crabgrass): 50%
- pest or weed control at 62 g/ha ([8]; post-emergence, Postemergence, scale 0 to 100 (0 no effect, 100 complete control), read-out: Foxtail, Giant plant response rating): 30%
- pest or weed control at 250 g/ha ([8]; post-emergence, Postemergence, scale 0 to 100, read-out: Plant response rating, Foxtail, Giant): 70%
- pest or weed control at 250 g/ha ([8]; pre-emergence, Preemergence, scale 0 to 100 (0 no effect, 100 complete control), read-out: Plant response rating, Foxtail, Giant): 50%
- pest or weed control at 62 g/ha ([8]; pre-emergence, Preemergence, scale 0 to 100, 0 no effect, 100 complete control, read-out: Plant response rating, Foxtail, Giant): 0%
- pest or weed control at 62 g/ha ([9]; 62 g ai/ha, scale 0 to 100 (0 no effect, 100 complete control), read-out: Lambsquarters plant response rating): 90%
- pest or weed control at 250 g/ha ([9]; 250 g ai/ha, scale 0 to 100, read-out: Plant response rating, Lambsquarters): 100%
- pest or weed control at 62 g/ha ([10]; post-emergence, Postemergence, scale 0 to 100 (0 no effect, 100 complete control), read-out: Morningglory plant response rating): 90%
- pest or weed control at 250 g/ha ([10]; post-emergence, Postemergence, scale 0 to 100, read-out: Plant response rating, Morningglory): 90%
- pest or weed control at 62 g/ha ([10]; pre-emergence, Preemergence, scale 0 to 100, 0 no effect, 100 complete control, read-out: Plant response rating, Morningglory): 90%
- pest or weed control at 250 g/ha ([10]; pre-emergence, Preemergence, scale 0 to 100 (0 no effect, 100 complete control), read-out: Plant response rating, Morningglory): 100%
- pest or weed control at 62 g/ha ([11]; post-emergence, Postemergence, scale 0 to 100 (0 no effect, 100 complete control), read-out: Pigweed plant response rating): 80%
- pest or weed control at 250 g/ha ([11]; post-emergence, Postemergence, scale 0 to 100, read-out: Plant response rating, Pigweed): 100%
- pest or weed control at 62 g/ha ([11]; pre-emergence, Preemergence, scale 0 to 100, 0 no effect, 100 complete control, read-out: Plant response rating, Pigweed): 60%
- pest or weed control at 250 g/ha ([11]; pre-emergence, Preemergence, scale 0 to 100 (0 no effect, 100 complete control), read-out: Plant response rating, Pigweed): 100%
- pest or weed control at 62 g/ha ([12]; post-emergence, Postemergence, scale 0 to 100 (0 no effect, 100 complete control), read-out: Velvetleaf plant response rating): 40%
- pest or weed control at 250 g/ha ([12]; post-emergence, Postemergence, scale 0 to 100, read-out: Plant response rating, Velvetleaf): 80%
- pest or weed control at 62 g/ha ([12]; pre-emergence, Preemergence, scale 0 to 100, 0 no effect, 100 complete control, read-out: Plant response rating, Velvetleaf): 20%
- pest or weed control at 250 g/ha ([12]; pre-emergence, Preemergence, scale 0 to 100 (0 no effect, 100 complete control), read-out: Plant response rating, Velvetleaf): 90%
- plant injury at 62 g/ha ([13]; post-emergence, Postemergence, scale 0 to 100 (0 no effect, 100 complete control), read-out: Wheat plant response rating): 30%
- plant injury at 250 g/ha ([13]; post-emergence, Postemergence, scale 0 to 100, read-out: Plant response rating, Wheat): 60%
- plant injury at 62 g/ha [13, 16]: 0%
- plant injury at 250 g/ha [13, 16]: 40%
- pest or weed control at 62 g/ha ([14]; 62 g ai/ha, scale 0 to 100 (0 no effect, 100 complete control), read-out: Blackgrass plant response rating): 20%
- pest or weed control at 250 g/ha ([14]; 250 g ai/ha, scale 0 to 100, read-out: Plant response rating, Blackgrass): 60%
- pest or weed control at 62 g/ha (wild oat (Avena fatua); 62 g ai/ha, scale 0 to 100 (0 no effect, 100 complete control), read-out: Oat, Wild plant response rating): 30%
- pest or weed control at 250 g/ha (wild oat (Avena fatua); 250 g ai/ha, scale 0 to 100, read-out: Plant response rating, Oat, Wild): 60%
